Assay results taken from ChEMBL document CHEMBL4840311, “Discovery of novel nitrogenous heterocyclic-containing quinoxaline-1,4-di-N-oxides as potent activator of autophagy in M.tb-infected macrophages” (Eur J Med Chem, 2021).
Values after ≈ are worked out from the molar mass of the structure shown. Active and inactive are the calls of the source. No cut-off for these calls is given here.

What was measured:
[1] = system: Mycobacterium tuberculosis; test: Antimycobacterial activity against Mycobacterium tuberculosis H37Rv ATCC 27294 assessed as inhibition of bacterial growth measured after 5 days by microplate alamar blue assay; type: functional; settings: H37Rv ATCC 27294, 120 h, time 5 day
[2] = system: J774.A1; test: Cytotoxicity against mouse J774.A1 cells assessed as reduction in cell viability measured after 72 hrs by MTT assay; type: cell-based; settings: J774.A1, 72 h
[3] = system: Vero; test: Cytotoxicity against African green monkey Vero cells assessed as reduction in cell viability measured after 72 hrs by MTT assay; type: cell-based; settings: Chlorocebus sabaeus
[4] = Selectivity index, ratio of IC50 for African green monkey Vero cells measured after 72 hrs by MTT assay to MIC for antimycobacterial activity against Mycobacterium tuberculosis H37Rv ATCC 27294 assessed as inhibition of bacterial growth measured after 5 days by microplate alamar blue assay; type: toxicity; settings: read-out: Selectivity Index
[5] = Toxicity in Wistar rat assessed as abnormal behaviour at 2.5 mg/kg, im measured for 48 hrs; type: organism-based; settings: in vivo
[6] = system: Mycobacterium tuberculosis; test: Antimycobacterial activity against Mycobacterium tuberculosis H37Rv infected in mouse J774.A1 cells assessed as log reduction of bacterial growth at 1X MIC measured after 4 days by visual colony counting analysis; type: functional; settings: time 4 day
[7] = Half life in Wistar rat at 2.5 mg/kg, im measured for 48 hrs by HPLC method; type: ADME, organism-based; settings: in vivo
[8] = system: J774.A1; test: Activation of autophagy in mouse J774.A1 cells assessed as LC3-II expression by measuring ratio of LC3-II to LC3-I measured after 24 hrs by Western blot assay (reference value: 1.04); type: functional
[9] = system: J774.A1; test: Induction of mitochondrial ROS generation in mouse J774.A1 cells infected with Mycobacterium tuberculosis H37Rv at 2.5 ug/ml measured after 24 hrs by Mito-SOX staining based flow cytometry assay; type: functional, cell-based; settings: dose 2.5 µg/ml
[10] = system: J774.A1; test: Induction of cytoplasmic ROS generation in mouse J774.A1 cells infected with Mycobacterium tuberculosis H37Rv at 2.5 ug/ml measured after 24 hrs by DCFH-DA staining based flow cytometry assay; type: functional, cell-based; settings: dose 2.5 µg/ml
[11] = system: J774.A1; test: Activation of autophagy in mouse J774.A1 cells infected with Mycobacterium tuberculosis H37Rv assessed as increase of LC3-II expression by measuring ratio of LC3-II to LC3-I at 2.5 ug/ml measured after 24 hrs by Western blot assay (reference value: 1.18); type: functional; settings: dose 2.5 µg/ml
[12] = Cmax in Wistar rat at 2.5 mg/kg, im measured for 48 hrs by HPLC method; type: ADME, organism-based; parameters: route intramuscular, dose 2.5 mg/kg, time 48 hrs; settings: in vivo
[13] = MRT (0 to infinity) in Wistar rat at 2.5 mg/kg, im by HPLC method; type: ADME, organism-based; settings: in vivo
[14] = system: Cell membrane; test: Disruption on membrane integrity in Mycobacterium tuberculosis assessed as red fluorescence at 2X to 4X MIC measured after 24 hrs by SYTO 9/PI staining based inverted flourescence microscopy method
[15] = system: Mycobacterium tuberculosis; test: Antimycobacterial activity against Mycobacterium tuberculosis H37Rv infected in mouse J774.A1 cells assessed as log reduction of bacterial growth at 20X MIC measured after 4 days by visual colony counting analysis; type: functional; settings: time 4 day
[16] = AUC (0 to t) in Wistar rat at 2.5 mg/kg, im measured for 48 hrs by HPLC method; type: ADME, organism-based; parameters: dose 2.5 mg/kg, time 48 hrs; settings: in vivo
[17] = system: J774.A1; test: Activation of autophagy in mouse J774.A1 cells infected with Mycobacterium tuberculosis H37Rv assessed as increase of LC3-II expression by measuring ratio of LC3-II to LC3-I at 5 ug/ml measured after 24 hrs by Western blot assay (reference value: 1.18); type: functional; settings: dose 5 µg/ml
[18] = system: J774.A1; test: Activation of autophagy in mouse J774.A1 cells assessed as LC3 accumulation measured after 24 hrs by immunofluorescence staining analysis; type: functional, cell-based
[19] = AUC (0 to infinity) in Wistar rat at 2.5 mg/kg, im by HPLC method; type: ADME, organism-based; parameters: time infinity, route intramuscular, dose 2.5 mg/kg; settings: in vivo
[20] = Tmax in Wistar rat at 2.5 mg/kg, im measured for 48 hrs by HPLC method; type: ADME, organism-based; settings: in vivo
[21] = MRT (0 to t) in Wistar rat at 2.5 mg/kg, im measured for 48 hrs by HPLC method; type: ADME, organism-based; settings: in vivo
[22] = system: J774.A1; test: Induction of mitochondrial ROS generation in mouse J774.A1 cells at 2.5 ug/ml measured after 24 hrs by DCFH-DA staining based flow cytometry assay; type: functional, cell-based; settings: dose 2.5 µg/ml
[23] = system: J774.A1; test: Activation of autophagy in mouse J774.A1 cells infected with Mycobacterium tuberculosis H37Rv assessed as increase in LC3 accumulation at 2.5 to 5 ug/ml measured after 24 hrs by immunofluorescence staining analysis; type: functional, cell-based; settings: dose 2.5-5 µg/ml
[24] = system: J774.A1; test: Induction of cytoplasmic ROS generation in mouse J774.A1 cells at 2.5 ug/ml measured after 24 hrs by DCFH-DA staining based flow cytometry assay; type: functional, cell-based; settings: dose 2.5 µg/ml
[25] = system: Mycobacterium tuberculosis; test: Antimycobacterial activity against Mycobacterium tuberculosis H37Rv infected in mouse J774.A1 cells assessed as log reduction of bacterial growth at 40X MIC measured after 4 days by visual colony counting analysis; type: functional; settings: time 4 day
[26] = system: Cell membrane; test: Disruption of membrane integrity Mycobacterium tuberculosis H37Rv assessed as disturbance in energy homeostasis by measuring reduction in ATP content at 0.125 to 2.5 ug/ml measured after 24 hrs by luciferase based bioluminescence assay; settings: dose 0.125-2.5 µg/ml
[27] = system: Mycobacterium tuberculosis; test: Antimycobacterial activity against Mycobacterium tuberculosis H37Rv infected in mouse J774.A1 cells assessed as log reduction of bacterial growth at 1X to 40X MIC measured after 1 day by visual colony counting analysis; type: functional
[28] = system: Mycobacterium tuberculosis; test: Antimycobacterial activity against Mycobacterium tuberculosis H37Rv infected in mouse J774.A1 cells assessed as log reduction of bacterial growth at 10X MIC measured after 4 days by visual colony counting analysis; type: functional; settings: time 4 day
[29] = system: J774.A1; test: Activation of autophagy in mouse J774.A1 cells infected with Mycobacterium tuberculosis H37Rv assessed as increase of LC3-II expression by measuring ratio of LC3-II to LC3-I at 1 ug/ml measured after 24 hrs by Western blot assay (reference value: 1.18); type: functional; settings: dose 1 µg/ml

In the case of `Cc1c(C(=O)OC(C)C)[n+]([O-])c2cc(F)c(-n3ccnc3)cc2[n+]1[O-]`, the MIC [1] is reported as 2 µg/mL (≈ 5.78 µM), the IC50 [2] is reported as 77.7 µM and the IC50 [3] is reported as 112 µM. For the same compound, the selectivity ratio at 72 hrs [4] was 19.5.
Work on `CCCC(=O)c1c(C)[n+]([O-])c2cc(N3CCNCC3)c(F)cc2[n+]1[O-]` yielded an MIC [1] of 16 µg/mL (≈ 45.9 µM).
For `CCOC(=O)c1c(C)[n+]([O-])c2cc(N3CCN(C)CC3)c(F)cc2[n+]1[O-]`, the MIC [1] was 8 µg/mL (≈ 22 µM).
`CCOC(=O)c1c(C)[n+]([O-])c2cc(-n3ccnc3)c(F)cc2[n+]1[O-]` showed an MIC [1] of 0.25 µg/mL (≈ 0.752 µM), an IC50 [2] of 77.7 µM and an IC50 [3] of 129 µM. It also gave a selectivity ratio at 72 hrs [4] of 172.
For `CCOC(=O)c1c(C)[n+]([O-])c2cc(N3CCNC(C)C3)c(F)cc2[n+]1[O-]` (stereo not drawn), the MIC [1] was 8 µg/mL (≈ 22 µM).
In the case of `CCOC(=O)c1c(C)[n+]([O-])c2cc(N3CCNCC3)c(F)cc2[n+]1[O-]`, the MIC [1] is reported as 4 µg/mL (≈ 11.4 µM).
With `Cc1c(C(=O)CC(C)C)[n+]([O-])c2ccccc2[n+]1[O-]` the MIC [1] was 64 µg/mL (≈ 246 µM).
Compound `Cc1c(C(=O)OC(C)C)[n+]([O-])c2cc(F)c(F)cc2[n+]1[O-]` has an MIC [1] of 16 µg/mL (≈ 53.6 µM).
Work on `CCOC(=O)c1c(C(F)(F)F)[n+]([O-])c2cc(-n3cncn3)c(F)cc2[n+]1[O-]` yielded an MIC [1] of 0.25 µg/mL (≈ 0.646 µM), an IC50 [3] of 35.4 µM and a selectivity ratio at 72 hrs [4] of 54.8.
For `CC(=O)c1c(C)[n+]([O-])c2cc(N3CCNCC3)c(F)cc2[n+]1[O-]`, the MIC [1] was 4 µg/mL (≈ 12.5 µM).
With `CCOC(=O)c1c(C)[n+]([O-])c2cc(F)c(F)cc2[n+]1[O-]` the MIC [1] was 1 µg/mL (≈ 3.52 µM), the IC50 [3] was 30.6 µM and the selectivity ratio at 72 hrs [4] was 8.7.
Compound `CC(=O)c1c(C)[n+]([O-])c2cc(-n3ccnc3)c(F)cc2[n+]1[O-]` has an MIC [1] of 0.5 µg/mL (≈ 1.65 µM), an IC50 [2] of 77.7 µM and an IC50 [3] of 95.7 µM. For the same compound, the selectivity ratio at 72 hrs [4] was 46.4.
`Cc1c(C(=O)OCc2ccccc2)[n+]([O-])c2cc(F)c(F)cc2[n+]1[O-]` gave an MIC [1] of 0.5 µg/mL (≈ 1.44 µM), an IC50 [3] of 55.3 µM and a selectivity ratio at 72 hrs [4] of 38.3.
For `CCCC(=O)c1c(C)[n+]([O-])c2cc(F)c(F)cc2[n+]1[O-]`, the MIC [1] was 8 µg/mL (≈ 28.3 µM).
For `Cc1c(C(=O)OCc2ccccc2)[n+]([O-])c2cc(F)c(-n3cncn3)cc2[n+]1[O-]`, the Activity [5] was “Non-Toxic”, the “log(activity)” value [6] was 0.74 and the half-life [7] was 5.94 h. For the same compound, the MIC [1] was 0.125 µg/mL (≈ 0.316 µM), the Ratio [8] was 0.78 and the Activity [9] was “Active”. For the same compound, the Activity [10] was “Active”, the Ratio [11] was 1.92 and the IC50 [2] was 77.7 µM. The Cmax [12] was 1560 ng/mL, the MRT inf [13] was 7.38 h and the Activity [14] was “Active”. The “log(activity)” value [15] was 2.12, the AUC(0-t) at 48 h [16] was 10100 ng·h/mL and the Ratio [17] was 2.59. For the same compound, the Activity [18] was “inactive”, the AUC(0-inf) [19] was 10600 ng·h/mL and the Tmax [20] was 2 h. The MRT last at 48 h [21] was 6.04 h, the Activity [22] was “inactive” and the Activity [23] was “Active”. The Activity [24] was “inactive”, the “log(activity)” value [25] was 2.73 and the Activity [26] was “Active”. For the same compound, the “log(activity)” value [27] was 0.1, the IC50 [3] was 123 µM and the “log(activity)” value [28] was 1.56. For the same compound, the selectivity ratio at 72 hrs [4] was 328 and the Ratio [29] was 1.74.
